Results reported in PubChem BioAssay AID1845219 (Molecular Pharmacology Branch, DTP, NCI, 2023).

Test system: SYO-1 tumor spheroids, viability % test/control
Assay: Anticancer human tumor SYO-1 cell line growth inhibition;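 note: spheroids exposed to agents for 7 days before viability read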;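 for viability, T/C: 100% = DMSO vehicle control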
Conditions: spheroids with HUVEC and MSC; for IC50: curve of first compound; for viability, T/C: stronger effect = lower value
Summary of the method: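 Single agents and combinations were tested on spheroids built from tumor cells plus HUVEC and hMSC, at half-log dilutions starting at or near clinical Cmax, else 10 microM; final DMSO 0.25% (v/v).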

[1] = second compound 0.003 µM, first compound 0.0316 µM
[2] = second compound 0.003 µM, first compound 0.1 µM
[3] = second compound 0.003 µM, first compound 0.316 µM
[4] = second compound 0.003 µM, first compound 1 µM
[5] = second compound 0.003 µM, first compound 3.16 µM
[6] = second compound 0.003 µM, first compound 10 µM
[7] = second compound 0.00949 µM, first compound 0.0316 µM
[8] = second compound 0.00949 µM, first compound 0.1 µM
[9] = second compound 0.00949 µM, first compound 0.316 µM
[10] = second compound 0.00949 µM, first compound 1 µM
[11] = second compound 0.00949 µM, first compound 3.16 µM
[12] = second compound 0.00949 µM, first compound 10 µM
[13] = second compound 0.03 µM, first compound 0.0316 µM
[14] = second compound 0.03 µM, first compound 0.1 µM
[15] = second compound 0.03 µM, first compound 0.316 µM
[16] = second compound 0.03 µM, first compound 1 µM
[17] = second compound 0.03 µM, first compound 3.16 µM
[18] = second compound 0.03 µM, first compound 10 µM
[19] = second compound 0.0949 µM, first compound 0.0316 µM
[20] = second compound 0.0949 µM, first compound 0.1 µM
[21] = second compound 0.0949 µM, first compound 0.316 µM
[22] = second compound 0.0949 µM, first compound 1 µM
[23] = second compound 0.0949 µM, first compound 3.16 µM
[24] = second compound 0.0949 µM, first compound 10 µM
[25] = second compound 0.3 µM, first compound 0.0316 µM
[26] = second compound 0.3 µM, first compound 0.1 µM
[27] = second compound 0.3 µM, first compound 0.316 µM
[28] = second compound 0.3 µM, first compound 1 µM
[29] = second compound 0.3 µM, first compound 3.16 µM
[30] = second compound 0.3 µM, first compound 10 µM

## COc1ccc([C@@H](O)c2cc(-c3ncnc4cc(N5CCOCC5)ccc34)c(F)cc2Cl)nn1 + CC[C@@]1(O)C(=O)OCc2c1cc1n(c2=O)Cc2cc3c(CN(C)C)c(O)ccc3nc2-1
Second compound 0.003 µM
  IC50: 1770 nM
Second compound 0.00949 µM
  IC50: < 31.6 nM
Second compound 0.03 µM
  IC50: < 31.6 nM
Second compound 0.0949 µM
  IC50: < 31.6 nM
Second compound 0.3 µM
  IC50: < 31.6 nM
[1]
  viability, T/C: 94.3%
[2]
  viability, T/C: 99.1%
[3]
  viability, T/C: 94.7%
[4]
  viability, T/C: 87.6%
[5]
  viability, T/C: 11.8%
[6]
  viability, T/C: 2.63%
[7]
  viability, T/C: 41.7%
[8]
  viability, T/C: 33.1%
[9]
  viability, T/C: 44.8%
[10]
  viability, T/C: 17.1%
[11]
  viability, T/C: 1.57%
[12]
  viability, T/C: 0.79%
[13]
  viability, T/C: 1.67%
[14]
  viability, T/C: 1.43%
[15]
  viability, T/C: 1.42%
[16]
  viability, T/C: 0.87%
[17]
  viability, T/C: 0.63%
[18]
  viability, T/C: 0.71%
[19]
  viability, T/C: 1.2%
[20]
  viability, T/C: 1.26%
[21]
  viability, T/C: 1.18%
[22]
  viability, T/C: 1.01%
[23]
  viability, T/C: 0.75%
[24]
  viability, T/C: 0.54%
[25]
  viability, T/C: 1.43%
[26]
  viability, T/C: 1.86%
[27]
  viability, T/C: 1.46%
[28]
  viability, T/C: 0.88%
[29]
  viability, T/C: 0.2%
[30]
  viability, T/C: 0.21%

## [2H]c1nc(C)nc([2H])c1-c1cc(NC[C@@H](C)c2cccc3c(C(=O)NC)ccnc23)ncn1 + CC[C@@]1(O)C(=O)OCc2c1cc1n(c2=O)Cc2cc3c(CN(C)C)c(O)ccc3nc2-1
Second compound 0.003 µM
  IC50: > 10000 nM
Second compound 0.00949 µM
  IC50: < 31.6 nM
Second compound 0.03 µM
  IC50: < 31.6 nM
Second compound 0.0949 µM
  IC50: < 31.6 nM
Second compound 0.3 µM
  IC50: < 31.6 nM
[1]
  viability, T/C: 92.5%
[2]
  viability, T/C: 99.4%
[3]
  viability, T/C: 94.6%
[4]
  viability, T/C: 93%
[5]
  viability, T/C: 92.3%
[6]
  viability, T/C: 93.7%
[7]
  viability, T/C: 25.9%
[8]
  viability, T/C: 31.1%
[9]
  viability, T/C: 28.9%
[10]
  viability, T/C: 20%
[11]
  viability, T/C: 19.2%
[12]
  viability, T/C: 17.2%
[13]
  viability, T/C: 1.86%
[14]
  viability, T/C: 2.19%
[15]
  viability, T/C: 1.77%
[16]
  viability, T/C: 2.01%
[17]
  viability, T/C: 1.73%
[18]
  viability, T/C: 1.75%
[19]
  viability, T/C: 1.57%
[20]
  viability, T/C: 1.61%
[21]
  viability, T/C: 1.6%
[22]
  viability, T/C: 1.39%
[23]
  viability, T/C: 1.9%
[24]
  viability, T/C: 1.55%
[25]
  viability, T/C: 1.71%
[26]
  viability, T/C: 1.76%
[27]
  viability, T/C: 2.05%
[28]
  viability, T/C: 1.52%
[29]
  viability, T/C: 1.73%
[30]
  viability, T/C: 2.12%
